Assay results from patent US20180153159A1, “FATTY NITRILE SOLVENTS FOR AGRICULTURAL FORMULATIONS” (priority 2015, published 2018).

Tests used:
[1] = Solubility of various pesticides in alkyl nitrile; type: physicochemical
Source text: In Table 1, the designation of C14-18 represents the nitrile derived from tallow and C8-C16 represents the nitrile derived from coco. Note that the C14-C18 tallow nitrile corresponds to an R value of C13-C17 in Formula (I), because Formula (I) includes a carbon atom outside of the R group definition. Likewise, C8-C16 coco nitrile corresponds to an R value of C7-C15 in Formula (I). The C10 value in the first column of Table 1 corresponds to an R value of C9 in Formula (I) for the same reasons.

[2] = Appearance, flow and viscosity of (DMAPA) DDBS diluted with fatty nitrile; type: physicochemical
Source text: Dimethylaminopropylamine dodecylbenzene sulfonic acid (DMAPA-DDBS) is generally highly viscous. A low viscosity liquid sample of (DMAPA) DDBS was obtained by mixing 51.69 g of DDBS, 40 g tallow nitrile (fractionated), followed by slowly adding 8.31 g DMAPA.
A liquid sample of dimethylaminopropylamine (DMAPA) DDBS was obtained by mixing 43.08 g dodecylbenzene sulfonic (DDBS) acid, 25 g oleic nitrile, 25 g castor oil ethoxylate (10EO), followed by slowly adding 6.92 g DMAPA.

[3] = in 100 g C10 nitrile, room temperature
[4] = in 100 g C14-C18 (tallow) nitrile
[5] = <10 g in 100 g C14-C18 (tallow) nitrile
[6] = 0.1 g in 5 g C14-C18 (tallow) nitrile

NC(N)=O [Urea]
Result (solubility in alkyl nitrile) ([1]; 0.26 g in 1 g C14-C18 (tallow) nitrile): Doesn't dissolve | solvency power of fatty nitrile towards the agrochemical ([1]; fatty nitrile as solvent): very little solvency power

COc1cc(OC)nc(NC(=O)NS(=O)(=O)c2ncccc2C(=O)N(C)C)n1 [Nicosulfuron]
Result (solubility in alkyl nitrile) ([1]; 0.114 g (92.22%) in 1 g C14-C18 (tallow) nitrile): Suspension

CCOP(=S)(OCC)Oc1nc(Cl)c(Cl)cc1Cl [Chlorpyrifos]
Result (solubility in alkyl nitrile) ([1]; 44 g in 100 g C14-C18 (tallow) nitrile): Dissolved | Wt, g (pesticide dissolved) ([1]; in 20 g C10 nitrile + 80 g Solvesso 100 solvent, room temperature): 102 g | Wt, g (pesticide dissolved) ([1]; in 20 g C10 nitrile + 80 g methyl ester solvent, room temperature): 87 g | Wt, g (pesticide dissolved) ([1]; in 30 g C10 nitrile + 70 g methyl ester solvent, room temperature): 100 g | Wt, g (pesticide dissolved) ([1]; in 35 g C10 nitrile + 65 g Solvesso 100 solvent, room temperature): 103 g | Wt, g (pesticide dissolved) ([1]; in 40 g C10 nitrile + 60 g methyl ester solvent, room temperature): 166 g | Wt, g (pesticide dissolved) ([1]; in 50 g C10 nitrile + 50 g Solvesso 100 solvent, room temperature): 102 g | Wt, g (pesticide dissolved) [1, 3]: 84 g | Wt, g (pesticide dissolved) [1, 4]: 44 g | amount the C10 nitrile can dissolve ([1]; in C10 nitrile (Arneel 10D)): about 46%

Pyritherin
Result (solubility in alkyl nitrile) ([1]; 3.15 g in 5 g C14-C18 (tallow) nitrile): Clear

CC(C)(C)C(O)(CCc1ccc(Cl)cc1)Cn1cncn1 (stereo not drawn) [Tebuconazole]
Result (solubility in alkyl nitrile) ([1]; 0.4 g in 5 g C14-C18 (tallow) nitrile): Hazy to clr | Result (solubility in alkyl nitrile) [1, 5]: Dissolved | Wt, g (pesticide dissolved) [1, 3]: <10 g | Wt, g (pesticide dissolved) [1, 4]: <10 g

CON=C(C(=O)OC)c1ccccc1CON=C(C)c1cccc(C(F)(F)F)c1 [Trifloxystrobin]
Result (solubility in alkyl nitrile) [1, 5]: Dissolved | Wt, g (pesticide dissolved) ([1]; in 50 g C10 nitrile + 50 g rapeseed methylester (solvent), room temperature): 14 g | Wt, g (pesticide dissolved) [1, 3]: 19 g | Wt, g (pesticide dissolved) [1, 4]: <10 g

CNC.O=C(O)COc1ccc(Cl)cc1Cl [2,4-D DMA]
Result (solubility in alkyl nitrile) [1, 6]: Solid at bottom

O=C(O)CNCP(=O)(O)O [Glyphosate acid]
Result (solubility in alkyl nitrile) [1, 6]: Solid at bottom

Dimethylaminopropylamine dodecylbenzene sulfonic acid [(DMAPA) DDBS]
appearance, flow and viscosity of sample ([2]; 43.08 g DDBS acid, 25 g oleic nitrile, 25 g castor oil ethoxylate (10EO), 6.92 g DMAPA): clear, flowed at about 0° C., and had acceptable viscosity | appearance, flow and viscosity of sample ([2]; 51.69 g DDBS, 40 g tallow nitrile (fractionated), 8.31 g DMAPA): clear, flowed freely at room temperature and had acceptable viscosity | appearance, flow and viscosity of sample ([2]; oleic nitrile instead of tallow nitrile): flowed better at lower temperatures
